Paper PMC9467586, “Development of novel 9-O-substituted-13-octylberberine derivatives as potential anti-hepatocellular carcinoma agents” (Journal of Enzyme Inhibition and Medicinal Chemistry, 2022)
Where two headings read alike, the source gives them in different places.

Assays:
[1] = tested on: H22 liver cancer xenograft; assay: In vivo anti-HCC assay, H22 liver cancer xenograft mouse model; parameters: species or system mice; details: 20 mg/kg, intravenous, once a day for 21 days, H22 mice
Method: Five-week-old male Institute of Cancer Research (ICR) mice were purchased from Shanghai SLAC Laboratory Animals Co. Ltd. Briefly, a total of 1 × 10^6 H22 cells were subcutaneously inoculated into the right flank of ICR mice according to protocols of tumour transplant research, to initiate tumour growth. After incubation for one day, mice were weighed and randomly divided into 5 groups of 8 animals. The groups were administered berberine (30 mg/kg) and 6k (15 or 30 mg/kg) in a vehicle of 10% DMF/2% Tween 80/88% saline, respectively. Vehicle and cyclophosphamide (20 mg/kg) were employed as negative and positive controls, respectively. Treatments were performed by intravenous injection once per day for a total of 21 consecutive days. Body weights and tumour volumes were measured every 2 days. The mice were sacrificed after the treatments, and the tumours were excised and weighed. The tumour volume and inhibition rate (w/w) were calculated as follows: tumour volume = L × W^2/2, where L is the length and W is the width; tumour inhibitory ratio (%) = (1-average tumour weight of treated group/average tumour weight of control group) × 100%. All procedures were performed following institutional approval in accordance with the NIH Guide for the Care and Use of Laboratory Animals.

[2] = tested on: HepG2 cells; assay: In vitro antiproliferative MTT assay, HepG2 cells; format: cell-based, human; details: 72 h, mean ± SD (n = 3), read-out: IC50 (antiproliferative activity against HepG2 cells)
Method: (§1) HepG2, Sk-Hep-1, Huh-7, Hep3B and L-02 cells were purchased from Nanjing Key Gen Biotech Co. Ltd. (Nanjing, China). The cytotoxicity of test compounds was determined using an MTT assay. Briefly, the cell lines were incubated at 37 °C in a humidified 5% CO2 incubator for 24 h in 96-microwell plates. After medium removal, 100 μL of culture medium with 0.1% DMSO containing test compounds at different concentrations was added to each well and incubated at 37 °C for another 72 h. The MTT (5 mg/mL in PBS) was added and incubated for another 4 h, the optical density was detected with a microplate reader at 490 nm. The IC50 values were calculated according to the dose-dependent curves. All the experiments were repeated in at least three independent experiments.

[3] = tested on: Sk-Hep-1 cells; assay: In vitro antiproliferative MTT assay, Sk-Hep-1 cells; format: cell-based, human; details: 72 h, mean ± SD (n = 3)
Method: as §1

[4] = tested on: Huh-7 cells; assay: In vitro antiproliferative MTT assay, Huh-7 cells; format: cell-based, human; details: 72 h, mean ± SD (n = 3)
Method: as §1

[5] = tested on: Hep3B cells; assay: In vitro antiproliferative MTT assay, Hep3B cells; format: cell-based, human; details: 72 h, mean ± SD (n = 3)
Method: as §1

[6] = tested on: normal hepatocytes L-02; assay: MTT cytotoxicity assay, normal hepatocytes L-02; format: cell-based; details: normal hepatocytes L-02, MTT, 72 h, mean ± SD (n = 3)
Method: as §1

[7] = LWP coefficient (log D) measurement, shake flask; format: physicochemical; details: pH 7.4
Method: Berberine, 3c and 6k of 1 mg were dissolved in three centrifugal tubes (5 ml) containing phosphate buffer (pH 7.4)-saturated 1-octanol solution (2 mL), followed by the addition of 1-octanol saturated PBS (2 mL). Each tube was vigorously mixed for 1 min and then shaken for 6 h at a speed of 1000 rpm at 37 °C. The mixtures were then centrifuged. 1 mL of 1-octanol phase and 1 mL of buffer were separately collected. Each phase was diluted to a suitable concentration and analysed by HPLC (Shimadzu DGU-20A3R) on a Shimadzu-GL WondaSil C18-WR column (λ = 254 nm) with an eluent of methanol/water (65/35, v/v, 1.0 ml/min). The log D value for each compound was calculated from the ratio of the peak areas using the following equation: Log D = log (Areaoct × x/Areabuf × y). x, y is the dilution factor.

[8] = Aqueous solubility measurement by HPLC; format: physicochemical; details: 25 °C, pH 7.4, aqueous buffer, thermodynamic from solid
Method: Berberine, 3c and 6k (5 mg) were dissolved in 1 ml PBS (50 mM, pH 7.4) at 25 °C. The suspension was sonicated for 30 min and then centrifuged at 15000 g for 5 min. The supernatant was filtered through a PTFE filter (0.2 μm) slowly. Then 10 μL filtered solution was injected into the HPLC system (Shimadzu DGU-20A3R) on a Shimadzu-GL WondaSil C18-WR column and quantified using the standard curves made by the corresponding known concentrations of berberine, 3c and 6k. The eluent was methanol/water (65/35, v/v) at a flow rate of 1.0 ml/min with the detection wavelength at 254 nm.

SMILES | IC50 ([2]; Homo sapiens) [µM] | melting point [°C] | other results
O=P1(N(CCCl)CCCl)NCCCO1 (stereo not drawn) [CP, cyclophosphamide, reference compound] | – | – | tumour inhibitory rate (TIR, w/w) [1]: 64.2%
N.N.[Cl][Pt][Cl] [Cisplatin] | – | – | IC50 [2]: 6.87 ± 0.31 µM; IC50 [3]: 6.52 ± 0.42 µM; IC50 [4]: 3.03 ± 0.63 µM; IC50 [5]: 11.2 ± 0.51 µM; IC50 [6]: 6.79 ± 0.46 µM
COc1ccc2c(Cc3ccccc3)c3[n+](cc2c1OC)CCc1cc2c(cc1-3)OCO2 [Compound 3a, 13-Benzyl-9,10-dimethoxy-5,6-dihydro-[1,3]dioxolo[4,5-g]isoquinolino[3,2-a]isoquinolin-7-ium bromide] | > 50 | – | –
CCCCCCc1c2[n+](cc3c(OC)c(OC)ccc13)CCc1cc3c(cc1-2)OCO3 [Compound 3b, 13-Hexyl-9,10-dimethoxy-5,6-dihydro-[1,3]dioxolo[4,5-g]isoquinolino[3,2-a]isoquinolin-7-ium chloride] | 6.14 ± 0.57 | – | –
CCCCCCCCc1c2[n+](cc3c(OC)c(OC)ccc13)CCc1cc3c(cc1-2)OCO3.[Cl-] [Compound 3c, 9,10-Dimethoxy-13-octyl-5,6-dihydro-[1,3]dioxolo[4,5-g]isoquinolino[3,2-a]isoquinolin-7-ium chloride] | 4.12 ± 0.26 | – | logD [7]: 2.41; solubility at 30 min [8]: 1120 µg/mL
CCCCCCCCCCc1c2[n+](cc3c(OC)c(OC)ccc13)CCc1cc3c(cc1-2)OCO3 [Compound 3d, 13-Decyl-9,10-dimethoxy-5,6-dihydro-[1,3]dioxolo[4,5-g]isoquinolino[3,2-a]isoquinolin-7-ium chloride] | 4.45 ± 0.34 | – | –
CCCCCCCCCCCCc1c2[n+](cc3c(OC)c(OC)ccc13)CCc1cc3c(cc1-2)OCO3 [Compound 3e, 13-Dodecyl-9,10-dimethoxy-5,6-dihydro-[1,3]dioxolo[4,5-g]isoquinolino[3,2-a]isoquinolin-7-ium chloride] | 4.24 ± 0.44 | – | –

More lines, main results first:

IC50 ([2]; Homo sapiens) [µM] | melting point [°C] | SMILES | other results
6.82 ± 0.51 | 142 to 144 | CCCCCCCCc1c2[n+](cc3c(OCCCN(CC)CC)c(OC)ccc13)CCc1cc3c(cc1-2)OCO3.[Br-] [Compound 6a, 9–(3-(Diethylamino)propoxy)-10-methoxy-13-octyl-5,6-dihydro-[1,3]dioxolo[4,5-g]isoquinolino[3,2-a]isoquinolin-7-ium bromide] | –
7.75 ± 0.83 | 135 to 137 | CCCCCCCCc1c2[n+](cc3c(OCCCN4CCCC4)c(OC)ccc13)CCc1cc3c(cc1-2)OCO3.[Br-] [Compound 6b, 10-Methoxy-13-octyl-9–(3-(pyrrolidin-1-yl)propoxy)-5,6-dihydro-[1,3]dioxolo[4,5-g]isoquinolino[3,2-a]isoquinolin-7-ium bromide] | –
6.25 ± 0.56 | 167 to 169 | CCCCCCCCc1c2[n+](cc3c(OCCCN4CCOCC4)c(OC)ccc13)CCc1cc3c(cc1-2)OCO3.[Br-] [Compound 6c, 10-Methoxy-9–(3-morpholinopropoxy)-13-octyl-5,6-dihydro-[1,3]dioxolo[4,5-g]isoquinolino[3,2-a]isoquinolin-7-ium bromide] | –
4.75 ± 0.24 | 149 to 151 | CCCCCCCCc1c2[n+](cc3c(OCCCCCCN(CC)CC)c(OC)ccc13)CCc1cc3c(cc1-2)OCO3.[Br-] [Compound 6d, 9-((6-(Diethylamino)hexyl)oxy)-10-methoxy-13-octyl-5,6-dihydro-[1,3]dioxolo[4,5-g]isoquinolino[3,2-a]isoquinolin-7-ium bromide] | –
3.91 ± 0.36 | 126 to 128 | CCCCCCCCc1c2[n+](cc3c(OCCCCCCN4CCCC4)c(OC)ccc13)CCc1cc3c(cc1-2)OCO3.[Br-] [Compound 6e, 10-Methoxy-13-octyl-9-((6-(pyrrolidin-1-yl)hexyl)oxy)-5,6-dihydro-[1,3]dioxolo[4,5-g]isoquinolino[3,2-a]isoquinolin-7-ium bromide] | –
1.27 ± 0.25 | 164 to 166 | CCCCCCCCc1c2[n+](cc3c(OCCCCCCN4CCOCC4)c(OC)ccc13)CCc1cc3c(cc1-2)OCO3.[Br-] [Compound 6f, 10-Methoxy-9-((6-morpholinohexyl)oxy)-13-octyl-5,6-dihydro-[1,3]dioxolo[4,5-g]isoquinolino[3,2-a]isoquinolin-7-ium bromide] | –
1.64 ± 0.13 | 132 to 134 | CCCCCCCCc1c2[n+](cc3c(OCCCCCCN4CCCCC4)c(OC)ccc13)CCc1cc3c(cc1-2)OCO3.[Br-] [Compound 6g, 10-Methoxy-13-octyl-9-((6-(piperidin-1-yl)hexyl)oxy)-5,6-dihydro-[1,3]dioxolo[4,5-g]isoquinolino[3,2-a]isoquinolin-7-ium bromide] | –
1.47 ± 0.19 | 165 to 167 | CCCCCCCCc1c2[n+](cc3c(OCCCCCCN4CCN(C)CC4)c(OC)ccc13)CCc1cc3c(cc1-2)OCO3.[Br-] [Compound 6h, 10-Methoxy-9-((6–(4-methylpiperazin-1-yl)hexyl)oxy)-13-octyl-5,6-dihydro-[1,3]dioxolo[4,5-g]isoquinolino[3,2-a]isoquinolin-7-ium bromide] | –
0.81 ± 0.08 | 147 to 149 | CCCCCCCCc1c2[n+](cc3c(OCCCCCCCCN4CCOCC4)c(OC)ccc13)CCc1cc3c(cc1-2)OCO3.[Br-] [Compound 6i, 10-Methoxy-9-((8-morpholinooctyl)oxy)-13-octyl-5,6-dihydro-[1,3]dioxolo[4,5-g]isoquinolino[3,2-a]isoquinolin-7-ium bromide] | –
1 ± 0.1 | 144 to 146 | CCCCCCCCc1c2[n+](cc3c(OCCCCCCCCN4CCCCC4)c(OC)ccc13)CCc1cc3c(cc1-2)OCO3.[Br-] [Compound 6j, 10-Methoxy-13-octyl-9-((8-(piperidin-1-yl)octyl)oxy)-5,6-dihydro-[1,3]dioxolo[4,5-g]isoquinolino[3,2-a]isoquinolin-7-ium bromide] | –
1.28 ± 0.11 | 135 to 137 | CCCCCCCCc1c2[n+](cc3c(OCCCCCCCCCCN4CCOCC4)c(OC)ccc13)CCc1cc3c(cc1-2)OCO3.[Br-] [Compound 6l, 10-Methoxy-9-((10-morpholinodecyl)oxy)-13-octyl-5,6-dihydro-[1,3]dioxolo[4,5-g]isoquinolino[3,2-a]isoquinolin-7-ium bromide] | –
1.44 ± 0.13 | 142 to 144 | CCCCCCCCc1c2[n+](cc3c(OCCCCCCCCCCN4CCCCC4)c(OC)ccc13)CCc1cc3c(cc1-2)OCO3.[Br-] [Compound 6m, 10-Methoxy-13-octyl-9-((10-(piperidin-1-yl)decyl)oxy)-5,6-dihydro-[1,3]dioxolo[4,5-g]isoquinolino[3,2-a]isoquinolin-7-ium bromide] | –
1.08 ± 0.1 | 136 to 138 | CCCCCCCCc1c2[n+](cc3c(OCCCCCCCCCCN4CCN(C)CC4)c(OC)ccc13)CCc1cc3c(cc1-2)OCO3.[Br-] [Compound 6n, 10-Methoxy-9-((10–(4-methylpiperazin-1-yl)decyl)oxy)-13-octyl-5,6-dihydro-[1,3]dioxolo[4,5-g]isoquinolino[3,2-a]isoquinolin-7-ium bromide] | –
